Source: patent US20230271940A1, “HETEROARYL SUBSTITUTED 3-(1-OXOISOINDOLIN-2-YL)PIPERIDINE-2,6-DIONE DERIVATIVES AND USES THEREOF” (Novartis AG, priority 2020, published 2023)

Target: IKZF2 (Homo sapiens, UniProt Q96SW2+Q9UKS7)
Assay: Prolabel quantification of IKZF2 protein levels in 293GT cells
Format: cell-based
Details: not given
Method: (§1) The Prolabel system from DiscoverX was used to develop high-throughput and quantitative assays to measure changes in IKZF1, IKZF2 and GSPT1 protein levels in response to compounds. The prolabel tag was derived from the alpha fragment of beta galactosidase and has the following protein sequence: mssnslavvlqadwenpgvtqlnrlaahppfaswrnseeartdipsqqlislnge. The complementary fragment of beta-galactosidase (from DiscoverX), is added to the prolabel tag to form an active beta galactosidase enzyme whose activity can be precisely measured. In this way, the levels of a fusion protein with the prolabel tag can be quantified in cell lysates.
Lentiviral vectors, based on the Invitrogen pLenti6.2/V5 DEST backbone, were constructed that placed the prolabel tag upstream of IKZF1, IKZF2 or GSPT1 and expressed the fusion protein from a CMV promoter.
To ensure moderate and consistent expression of the prolabel fusion proteins across all cells in the population, stable cell lines were constructed from cells expressing a single copy of the construct. Lentivirus packaged with the constructs was made using the Virapower kit from Invitrogen.
The levels of prolabel tagged fusion proteins in compound treated cell lines were measured as follows:
Day 1, Cells were diluted to 1.0×10^6 cells/ml in normal growth medium. 17.5 μL of cells were plated in each well of a solid white 384 well plate. Plates were incubated overnight in a 37° C. tissue culture incubator.
Day 2, Serial dilutions of compounds were made in 384 well plates from 10 mM stocks. 15 μL of DMSO was added to each well of a 384 well plate. In the first column, 15 μL of stock compound was added. The solution was mixed and 15 μL was transferred to the next column. This was repeated until 20 two-fold dilutions were prepared. 2.5 μL of diluted compounds were transferred into 60 μL of cell culture medium in another 384 well plate, and mixed well. […] of this mixture was added to the plated cells. The final DMSO concentration was 0.5% and the highest concentration of compound was 50 μM. Plates were incubated overnight (e.g., about 14 h, 18 h, or 24 h) in a 37° C. tissue culture incubator.
Day 3, Plates were removed from the incubator and allowed to equilibrate at r.t. for 30 minutes. Prolabel substrate (DiscoverX PathHunter Prolabel Detection Kit, User manual: 93-0180) was added as described by the manufacturers protocols. Plates were incubated at r.t. for three hours and luminescence was read using an Envision reader (Perkin Elmer) Data was analyzed and visualized using the Spotfire software package.

Sequence of IKZF2 (Q9UKS7 whole entry): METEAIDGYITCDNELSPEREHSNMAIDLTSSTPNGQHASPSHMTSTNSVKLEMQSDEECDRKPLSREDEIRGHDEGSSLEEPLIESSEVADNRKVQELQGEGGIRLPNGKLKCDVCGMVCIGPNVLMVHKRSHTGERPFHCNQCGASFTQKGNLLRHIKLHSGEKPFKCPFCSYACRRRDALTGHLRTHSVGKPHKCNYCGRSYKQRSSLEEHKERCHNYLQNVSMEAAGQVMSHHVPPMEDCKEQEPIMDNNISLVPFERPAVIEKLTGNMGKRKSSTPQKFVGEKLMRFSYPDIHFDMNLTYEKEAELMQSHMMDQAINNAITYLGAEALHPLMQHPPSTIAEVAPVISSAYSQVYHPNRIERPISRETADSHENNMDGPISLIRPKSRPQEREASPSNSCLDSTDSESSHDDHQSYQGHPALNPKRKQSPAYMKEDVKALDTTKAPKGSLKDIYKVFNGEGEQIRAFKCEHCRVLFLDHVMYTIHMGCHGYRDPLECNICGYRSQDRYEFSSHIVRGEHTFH
Sequence of IKZF2 (Q96SW2 whole entry): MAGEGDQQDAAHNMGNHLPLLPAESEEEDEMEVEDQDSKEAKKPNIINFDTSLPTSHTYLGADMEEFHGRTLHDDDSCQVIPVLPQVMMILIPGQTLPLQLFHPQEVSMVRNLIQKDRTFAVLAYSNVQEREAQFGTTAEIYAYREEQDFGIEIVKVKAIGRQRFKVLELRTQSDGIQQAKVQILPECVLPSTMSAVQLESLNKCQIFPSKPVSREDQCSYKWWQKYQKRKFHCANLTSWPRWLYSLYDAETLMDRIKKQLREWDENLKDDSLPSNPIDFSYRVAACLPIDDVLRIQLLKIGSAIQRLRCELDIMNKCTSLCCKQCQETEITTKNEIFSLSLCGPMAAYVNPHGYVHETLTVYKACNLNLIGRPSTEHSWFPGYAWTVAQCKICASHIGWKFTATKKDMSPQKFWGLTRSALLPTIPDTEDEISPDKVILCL
Sequence of IKZF2 (Q16531 whole entry partner): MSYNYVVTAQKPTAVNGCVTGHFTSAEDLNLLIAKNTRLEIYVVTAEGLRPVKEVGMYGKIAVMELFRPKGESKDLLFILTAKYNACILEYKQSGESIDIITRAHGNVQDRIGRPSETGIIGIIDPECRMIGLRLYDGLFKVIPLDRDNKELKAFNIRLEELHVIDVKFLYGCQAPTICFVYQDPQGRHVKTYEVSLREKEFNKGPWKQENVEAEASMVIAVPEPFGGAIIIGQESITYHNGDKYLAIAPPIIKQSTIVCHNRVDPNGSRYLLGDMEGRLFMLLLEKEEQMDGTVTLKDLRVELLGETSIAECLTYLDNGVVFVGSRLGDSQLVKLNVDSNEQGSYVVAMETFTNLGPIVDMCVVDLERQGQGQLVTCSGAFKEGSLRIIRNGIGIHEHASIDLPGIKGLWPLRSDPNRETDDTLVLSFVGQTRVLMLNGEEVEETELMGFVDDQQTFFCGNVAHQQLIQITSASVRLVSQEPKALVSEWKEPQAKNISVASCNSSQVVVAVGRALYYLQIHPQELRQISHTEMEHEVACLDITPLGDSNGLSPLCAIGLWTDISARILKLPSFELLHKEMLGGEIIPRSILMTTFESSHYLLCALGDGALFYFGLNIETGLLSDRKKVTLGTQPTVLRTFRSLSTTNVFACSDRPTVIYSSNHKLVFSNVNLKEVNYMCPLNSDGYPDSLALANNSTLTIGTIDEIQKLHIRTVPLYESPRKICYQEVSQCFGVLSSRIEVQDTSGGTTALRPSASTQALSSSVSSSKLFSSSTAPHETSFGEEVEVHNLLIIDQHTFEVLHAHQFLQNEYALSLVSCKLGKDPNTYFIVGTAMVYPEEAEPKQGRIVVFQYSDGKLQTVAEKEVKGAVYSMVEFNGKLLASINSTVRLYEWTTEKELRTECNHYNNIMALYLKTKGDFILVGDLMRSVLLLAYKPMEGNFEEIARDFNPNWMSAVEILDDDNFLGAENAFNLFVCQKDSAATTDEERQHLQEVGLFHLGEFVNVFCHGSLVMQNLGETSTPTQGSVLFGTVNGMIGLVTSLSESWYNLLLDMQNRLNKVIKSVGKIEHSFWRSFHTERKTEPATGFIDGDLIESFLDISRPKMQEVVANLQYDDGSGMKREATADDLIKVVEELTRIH

| SMILES | IKZF2 % protein reduction at 10 μM, 24 h |
| --- | --- |
| CO[C@H]1CC[C@H](Cc2ccc(-c3ccc4c(c3)CN(C3CCC(=O)NC3=O)C4=O)nn2)CC1 (stereo partly shown) [Compound I-25] | 68% |
| COc1cc(Cc2ccccc2)nnc1-c1ccc2c(c1)CN(C1CCC(=O)NC1=O)C2=O (stereo not shown) [Compound I-28, 3-(5-(6-benzyl-4-methoxypyridazin-3-yl)-1-oxoisoindolin-2-yl)piperidine-2,6-dione] | 73% |
| CCN(CC)Cc1ccc(-c2ccc3c(c2)CN(C2CCC(=O)NC2=O)C3=O)nn1 (stereo not shown) [Compound I-43, 3-(5-(6-((diethylamino)methyl)pyridazin-3-yl)-1-oxoisoindolin-2-yl)piperidine-2,6-dione] | 40% |
| O=C1CCC(N2Cc3cc(-c4nc5ncccc5[nH]4)ccc3C2=O)C(=O)N1 (stereo not shown) [Compound I-46, 3-(5-(1H-imidazo[4,5-b]pyridin-2-yl)-1-oxoisoindolin-2-yl)piperidine-2,6-dione] | 80% |
| CCNc1ccc(-c2ccc3c(c2)CN(C2CCC(=O)NC2=O)C3=O)nn1 (stereo not shown) [Compound I-22, 3-(5-(6-(ethylamino)pyridazin-3-yl)-1-oxoisoindolin-2-yl)piperidine-2,6-dione] | 60% |
| CCn1nc(-c2ccc3c(c2)CN(C2CCC(=O)NC2=O)C3=O)cc1C(F)(F)F (stereo not shown) [Compound I-7, 3-(5-(1-ethyl-5-(trifluoromethyl)-1H-pyrazol-3-yl)-1-oxoisoindolin-2-yl)piperidine-2,6-dione] | 10% |
| COc1cc(-c2ccc3c(c2)CN(C2CCC(=O)NC2=O)C3=O)nn1Cc1ccccc1 (stereo not shown) [Compound I-40, 3-(5-(1-benzyl-5-methoxy-1H-pyrazol-3-yl)-1-oxoisoindolin-2-yl)piperidine-2,6-dione] | 80% |
| O=C1CCC(N2Cc3cc(-c4nc5[nH]c(=O)ccc5[nH]4)ccc3C2=O)C(=O)N1 (stereo not shown) [Compound I-6, 3-(1-oxo-5-(5-oxo-4,5-dihydro-1H-imidazo[4,5-b]pyridin-2-yl)isoindolin-2-yl)piperidine-2,6-dione] | 75% |
| O=C1CCC(N2Cc3cc(-c4cccnn4)ccc3C2=O)C(=O)N1 (stereo not shown) [Compound I-42, 3-(1-oxo-5-(pyridazin-3-yl)isoindolin-2-yl)piperidine-2,6-dione] | 80% |
| CCn1nc(-c2ccc3c(c2)CN(C2CCC(=O)NC2=O)C3=O)cc1OC (stereo not shown) [Compound I-34, 3-(5-(1-ethyl-5-methoxy-1H-pyrazol-3-yl)-1-oxoisoindolin-2-yl)piperidine-2,6-dione] | 50% |

Same assay, conditions: 10 μM, 24 h, Prolabel assay, 293GT cells

| IKZF2 % protein reduction at 10 μM, 24 h | SMILES |
| --- | --- |
| 60% | CCNc1cnnc(-c2ccc3c(c2)CN(C2CCC(=O)NC2=O)C3=O)c1 (stereo not shown) [Compound I-21, 3-(5-(5-(ethylamino)pyridazin-3-yl)-1-oxoisoindolin-2-yl)piperidine-2,6-dione] |
| 0% | O=C1CCC(N2Cc3cc(-c4nn(Cc5ccccc5)c5ccccc45)ccc3C2=O)C(=O)N1 (stereo not shown) [Compound I-19, 3-(5-(1-benzyl-1H-indazol-3-yl)-1-oxoisoindolin-2-yl)piperidine-2,6-dione] |
| 60% | Cc1cn(Cc2ccccc2)nc1-c1ccc2c(c1)CN(C1CCC(=O)NC1=O)C2=O (stereo not shown) [Compound I-17, 3-(5-(1-benzyl-4-methyl-1H-pyrazol-3-yl)-1-oxoisoindolin-2-yl)piperidine-2,6-dione] |
| 50% | Cc1cc(-c2ccc3c(c2)CN(C2CCC(=O)NC2=O)C3=O)nn1Cc1ccccc1 (stereo not shown) [Compound I-4, 3-(5-(1-benzyl-5-methyl-1H-pyrazol-3-yl)-1-oxoisoindolin-2-yl)piperidine-2,6-dione] |
| 40% | O=C1CCC(N2Cc3cc(-c4n[nH]c5ccccc45)ccc3C2=O)C(=O)N1 (stereo not shown) [Compound I-18, 3-(5-(1H-indazol-3-yl)-1-oxoisoindolin-2-yl)piperidine-2,6-dione] |
| 20% | O=C1CCC(N2Cc3cc(-c4ccn(Cc5ccccc5)n4)ccc3C2=O)C(=O)N1 (stereo not shown) [Compound I-9, 3-(5-(1-benzyl-1H-pyrazol-3-yl)-1-oxoisoindolin-2-yl)piperidine-2,6-dione] |
| 0% | O=C1CCC(N2Cc3cc(-c4cn(Cc5ccccc5)cn4)ccc3C2=O)C(=O)N1 (stereo not shown) [Compound I-1, 3-(5-(1-benzyl-1H-imidazol-4-yl)-1-oxoisoindolin-2-yl)piperidine-2,6-dione] |
| 50% | O=C1CCC(N2Cc3cc(-c4nn(Cc5ccccc5)c5c4CCCC5)ccc3C2=O)C(=O)N1 (stereo not shown) [Compound I-15, 3-(5-(1-benzyl-4,5,6,7-tetrahydro-1H-indazol-3-yl)-1-oxoisoindolin-2-yl)piperidine-2,6-dione] |
| 90% | O=C1CCC(N2Cc3cc(-c4ccc(Cc5ccccc5)nn4)ccc3C2=O)C(=O)N1 (stereo not shown) [Compound I-24, 3-(5-(6-benzylpyridazin-3-yl)-1-oxoisoindolin-2-yl)piperidine-2,6-dione] |
| 30% | CCn1nc(-c2ccc3c(c2)CN(C2CCC(=O)NC2=O)C3=O)c2ccccc21 (stereo not shown) [Compound I-11, 3-(5-(1-ethyl-1H-indazol-3-yl)-1-oxoisoindolin-2-yl)piperidine-2,6-dione] |
| 35% | Cc1cc(-c2ccc3c(c2)CN(C2CCC(=O)NC2=O)C3=O)nn1Cc1ccc(C#N)cc1 (stereo not shown) [Compound I-5, 4-((3-(2-(2,6-dioxopiperidin-3-yl)-1-oxoisoindolin-5-yl)-5-methyl-1H-pyrazol-1-yl)methyl)benzonitrile] |
| 50% | Cc1c[nH]nc1-c1ccc2c(c1)CN(C1CCC(=O)NC1=O)C2=O (stereo not shown) [Compound I-3, 3-(5-(4-methyl-1H-pyrazol-3-yl)-1-oxoisoindolin-2-yl)piperidine-2,6-dione] |
| 0% | Cc1cc(-c2ccc3c(c2)CN(C2CCC(=O)NC2=O)C3=O)n[nH]1 (stereo not shown) [Compound I-16, 3-(5-(5-methyl-1H-pyrazol-3-yl)-1-oxoisoindolin-2-yl)piperidine-2,6-dione] |
| 10% | O=C1CCC(N2Cc3cc(-c4cc[nH]n4)ccc3C2=O)C(=O)N1 (stereo not shown) [Compound I-8, 3-(1-oxo-5-(1H-pyrazol-3-yl)isoindolin-2-yl)piperidine-2,6-dione] |

Target: IKZF1 (Homo sapiens, UniProt Q13422+Q96SW2)
Assay: Prolabel quantification of IKZF1 protein levels in 293GT cells
Format: cell-based
Details: Prolabel assay
Method: as §1
Lentiviral vectors, based on the Invitrogen pLenti6.2/V5 DEST backbone, were constructed that placed the prolabel tag upstream of IKZF1, IKZF2 or GSPT1 and expressed the fusion protein from a CMV promoter. […]
The levels of prolabel tagged fusion proteins in compound treated cell lines were measured as follows: […]
Day 3, Plates were removed from the incubator and allowed to equilibrate at r.t. for 30 minutes. […] Plates were incubated at r.t. for three hours and luminescence was read using an Envision reader (Perkin Elmer) Data was analyzed and visualized using the Spotfire software package.

Sequence of IKZF1 (Q13422 whole entry): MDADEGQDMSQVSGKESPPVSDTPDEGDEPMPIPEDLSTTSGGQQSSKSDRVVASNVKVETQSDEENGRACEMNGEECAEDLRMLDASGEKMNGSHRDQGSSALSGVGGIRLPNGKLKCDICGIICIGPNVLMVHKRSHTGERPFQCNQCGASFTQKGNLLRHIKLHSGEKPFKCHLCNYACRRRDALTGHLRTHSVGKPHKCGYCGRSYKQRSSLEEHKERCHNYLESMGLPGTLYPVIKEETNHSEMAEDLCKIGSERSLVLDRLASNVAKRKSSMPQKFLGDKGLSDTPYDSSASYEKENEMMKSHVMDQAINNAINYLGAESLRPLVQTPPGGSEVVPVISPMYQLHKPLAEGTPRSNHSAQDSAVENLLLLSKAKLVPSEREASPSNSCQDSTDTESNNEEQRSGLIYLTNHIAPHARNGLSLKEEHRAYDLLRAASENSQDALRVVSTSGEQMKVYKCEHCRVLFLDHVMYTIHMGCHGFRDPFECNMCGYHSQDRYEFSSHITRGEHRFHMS
Sequence of IKZF1 (Q96SW2 whole entry): as the sequence (Q96SW2 whole entry) above
Sequence of IKZF1 (Q16531 whole entry partner): as the sequence (Q16531 whole entry partner) above

| IKZF1 degradation @ 10 μM | SMILES |
| --- | --- |
| (80% | Nc1cccc2c1C(=O)N(C1CCC(=O)NC1=O)C2=O (stereo not shown) [Control, Pomalidomide] |
